{"source": "PubChem BioAssay (NCI)", "experiment_in_all_cases": "DTP human tumour cell line panel, 48 h", "key": {"UACC-257 melanoma": {"tested_on": "UACC-257 melanoma"}, "A498 renal": {"tested_on": "A498 renal"}, "SK-MEL-28 melanoma": {"tested_on": "SK-MEL-28 melanoma"}, "HCC-2998 colon": {"tested_on": "HCC-2998 colon"}, "SNB-75 CNS": {"tested_on": "SNB-75 CNS"}, "OVCAR-5 ovarian": {"tested_on": "OVCAR-5 ovarian"}, "T-47D breast": {"tested_on": "T-47D breast"}, "OVCAR-8 ovarian": {"tested_on": "OVCAR-8 ovarian"}, "OVCAR-4 ovarian": {"tested_on": "OVCAR-4 ovarian"}, "OVCAR-3 ovarian": {"tested_on": "OVCAR-3 ovarian"}, "HCT-116 colon": {"tested_on": "HCT-116 colon"}, "HT29 colon": {"tested_on": "HT29 colon"}, "HL-60(TB) leukemia": {"tested_on": "HL-60(TB) leukemia"}, "NCI-H226 lung": {"tested_on": "NCI-H226 lung"}, "HOP-62 NSCLC": {"tested_on": "HOP-62 NSCLC"}, "SF-539 CNS": {"tested_on": "SF-539 CNS"}, "SK-MEL-2 melanoma": {"tested_on": "SK-MEL-2 melanoma"}, "NCI-H460 lung": {"tested_on": "NCI-H460 lung"}, "LOX IMVI melanoma": {"tested_on": "LOX IMVI melanoma"}, "CAKI-1 renal": {"tested_on": "CAKI-1 renal"}, "COLO 205 colon": {"tested_on": "COLO 205 colon"}, "MOLT-4 leukemia": {"tested_on": "MOLT-4 leukemia"}, "UACC-62 melanoma": {"tested_on": "UACC-62 melanoma"}, "NCI-H23 lung": {"tested_on": "NCI-H23 lung"}, "RXF 393 renal": {"tested_on": "RXF 393 renal"}, "SNB-19 CNS": {"tested_on": "SNB-19 CNS"}, "UO-31 renal": {"tested_on": "UO-31 renal"}, "SF-295 CNS": {"tested_on": "SF-295 CNS"}, "HOP-92 NSCLC": {"tested_on": "HOP-92 NSCLC"}, "KM12 colon": {"tested_on": "KM12 colon"}, "MALME-3M melanoma": {"tested_on": "MALME-3M melanoma"}, "SK-OV-3 ovarian": {"tested_on": "SK-OV-3 ovarian"}, "PC-3 prostate": {"tested_on": "PC-3 prostate"}, "SR leukemia": {"tested_on": "SR leukemia"}, "MCF7 breast": {"tested_on": "MCF7 breast"}, "BT-549 breast": {"tested_on": "BT-549 breast"}, "MDA-MB-435": {"tested_on": "MDA-MB-435"}, "RPMI-8226 leukemia": {"tested_on": "RPMI-8226 leukemia"}, "HCT-15 colon": {"tested_on": "HCT-15 colon"}, "IGROV1 ovarian": {"tested_on": "IGROV1 ovarian"}, "K-562 leukemia": {"tested_on": "K-562 leukemia"}, "786-0 renal": {"tested_on": "786-0 renal"}, "ACHN renal": {"tested_on": "ACHN renal"}, "SK-MEL-5 melanoma": {"tested_on": "SK-MEL-5 melanoma"}, "U251 CNS": {"tested_on": "U251 CNS"}, "MDA-N": {"tested_on": "MDA-N"}, "CCRF-CEM leukemia": {"tested_on": "CCRF-CEM leukemia"}, "SW-620 colon": {"tested_on": "SW-620 colon"}, "SF-268 CNS": {"tested_on": "SF-268 CNS"}, "NCI/ADR-RES ovarian": {"tested_on": "NCI/ADR-RES ovarian"}, "M14 melanoma": {"tested_on": "M14 melanoma"}, "DU-145 prostate": {"tested_on": "DU-145 prostate"}, "MDA-MB-231 breast": {"tested_on": "MDA-MB-231 breast"}, "TK-10 renal": {"tested_on": "TK-10 renal"}, "SN12C renal": {"tested_on": "SN12C renal"}, "NCI-H522 lung": {"tested_on": "NCI-H522 lung"}, "EKVX NSCLC": {"tested_on": "EKVX NSCLC"}, "A549 NSCLC": {"tested_on": "A549 NSCLC"}, "HS 578T breast": {"tested_on": "HS 578T breast"}}, "note": "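Tested at 5 concentrations; 48 h exposure; 96-well plates; endpoints linearly interpolated, else capped at highest concentration. At the GI50, growth is halved. TGI: total growth inhibition.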", "data": [{"smiles": "C#Cc1cccc(Nc2ncnc3cc(OCCOC)c(OCCOC)cc23)c1", "values": [{"measurement": "TGI", "setting": "UACC-257 melanoma", "result": "> 100", "unit": "µM"}, {"measurement": "GI50", "setting": "A498 renal", "result": 2.19, "unit": "µM"}, {"measurement": "TGI", "setting": "A498 renal", "result": 45.8, "unit": "µM"}, {"measurement": "TGI", "setting": "SK-MEL-28 melanoma", "result": "> 100", "unit": "µM"}, {"measurement": "GI50", "setting": "HCC-2998 colon", "result": "> 88.8", "unit": "µM"}, {"measurement": "TGI", "setting": "HCC-2998 colon", "result": "> 100", "unit": "µM"}, {"measurement": "TGI", "setting": "SNB-75 CNS", "result": 46.7, "unit": "µM"}, {"measurement": "TGI", "setting": "OVCAR-5 ovarian", "result": "> 100", "unit": "µM"}, {"measurement": "GI50", "setting": "T-47D breast", "result": 4.17, "unit": "µM"}, {"measurement": "TGI", "setting": "T-47D breast", "result": "> 100", "unit": "µM"}, {"measurement": "TGI", "setting": "OVCAR-8 ovarian", "result": "> 93.3", "unit": "µM"}, {"measurement": "TGI", "setting": "OVCAR-4 ovarian", "result": "> 100", "unit": "µM"}, {"measurement": "GI50", "setting": "OVCAR-3 ovarian", "result": 3.53, "unit": "µM"}, {"measurement": "TGI", "setting": "OVCAR-3 ovarian", "result": "> 100", "unit": "µM"}, {"measurement": "TGI", "setting": "HCT-116 colon", "result": "> 100", "unit": "µM"}, {"measurement": "TGI", "setting": "HT29 colon", "result": "> 100", "unit": "µM"}, {"measurement": "GI50", "setting": "HL-60(TB) leukemia", "result": 20.6, "unit": "µM"}, {"measurement": "TGI", "setting": "HL-60(TB) leukemia", "result": "> 100", "unit": "µM"}, {"measurement": "GI50", "setting": "NCI-H226 lung", "result": 47.4, "unit": "µM"}, {"measurement": "TGI", "setting": "NCI-H226 lung", "result": "> 100", "unit": "µM"}, {"measurement": "TGI", "setting": "HOP-62 NSCLC", "result": 59.7, "unit": "µM"}, {"measurement": "TGI", "setting": "SF-539 CNS", "result": 81, "unit": "µM"}, {"measurement": "TGI", "setting": "SK-MEL-2 melanoma", "result": 50.6, "unit": "µM"}, {"measurement": "TGI", "setting": "NCI-H460 lung", "result": "> 91.4", "unit": "µM"}, {"measurement": "TGI", "setting": "LOX IMVI melanoma", "result": "> 100", "unit": "µM"}, {"measurement": "TGI", "setting": "CAKI-1 renal", "result": 10, "unit": "µM"}, {"measurement": "TGI", "setting": "COLO 205 colon", "result": "> 100", "unit": "µM"}, {"measurement": "GI50", "setting": "MOLT-4 leukemia", "result": 24.2, "unit": "µM"}, {"measurement": "TGI", "setting": "MOLT-4 leukemia", "result": "> 100", "unit": "µM"}, {"measurement": "TGI", "setting": "UACC-62 melanoma", "result": 38, "unit": "µM"}, {"measurement": "TGI", "setting": "NCI-H23 lung", "result": "> 100", "unit": "µM"}, {"measurement": "GI50", "setting": "RXF 393 renal", "result": 3.97, "unit": "µM"}, {"measurement": "TGI", "setting": "RXF 393 renal", "result": 34.9, "unit": "µM"}, {"measurement": "TGI", "setting": "SNB-19 CNS", "result": 92, "unit": "µM"}, {"measurement": "TGI", "setting": "UO-31 renal", "result": 74.5, "unit": "µM"}, {"measurement": "TGI", "setting": "SF-295 CNS", "result": 67.6, "unit": "µM"}, {"measurement": "TGI", "setting": "HOP-92 NSCLC", "result": 60.2, "unit": "µM"}, {"measurement": "TGI", "setting": "KM12 colon", "result": "> 100", "unit": "µM"}, {"measurement": "GI50", "setting": "MALME-3M melanoma", "result": 1.85, "unit": "µM"}, {"measurement": "TGI", "setting": "MALME-3M melanoma", "result": 43, "unit": "µM"}, {"measurement": "TGI", "setting": "SK-OV-3 ovarian", "result": 5.2, "unit": "µM"}, {"measurement": "TGI", "setting": "PC-3 prostate", "result": "> 100", "unit": "µM"}, {"measurement": "GI50", "setting": "SR leukemia", "result": 9.98, "unit": "µM"}, {"measurement": "TGI", "setting": "SR leukemia", "result": "> 100", "unit": "µM"}, {"measurement": "GI50", "setting": "MCF7 breast", "result": "> 100", "unit": "µM"}, {"measurement": "TGI", "setting": "MCF7 breast", "result": "> 100", "unit": "µM"}, {"measurement": "GI50", "setting": "BT-549 breast", "result": 33.4, "unit": "µM"}, {"measurement": "TGI", "setting": "BT-549 breast", "result": 98.7, "unit": "µM"}, {"measurement": "TGI", "setting": "MDA-MB-435", "result": "> 100", "unit": "µM"}, {"measurement": "TGI", "setting": "RPMI-8226 leukemia", "result": "> 74.7", "unit": "µM"}, {"measurement": "TGI", "setting": "HCT-15 colon", "result": "> 100", "unit": "µM"}, {"measurement": "TGI", "setting": "IGROV1 ovarian", "result": 16.9, "unit": "µM"}, {"measurement": "GI50", "setting": "K-562 leukemia", "result": 27.7, "unit": "µM"}, {"measurement": "TGI", "setting": "K-562 leukemia", "result": "> 100", "unit": "µM"}, {"measurement": "TGI", "setting": "786-0 renal", "result": 48, "unit": "µM"}, {"measurement": "TGI", "setting": "ACHN renal", "result": 32.2, "unit": "µM"}, {"measurement": "TGI", "setting": "SK-MEL-5 melanoma", "result": "> 78.9", "unit": "µM"}, {"measurement": "TGI", "setting": "U251 CNS", "result": 99, "unit": "µM"}, {"measurement": "TGI", "setting": "MDA-N", "result": "> 100", "unit": "µM"}, {"measurement": "TGI", "setting": "CCRF-CEM leukemia", "result": "> 100", "unit": "µM"}, {"measurement": "TGI", "setting": "SW-620 colon", "result": "> 100", "unit": "µM"}, {"measurement": "GI50", "setting": "SF-268 CNS", "result": 14.6, "unit": "µM"}, {"measurement": "TGI", "setting": "SF-268 CNS", "result": "> 100", "unit": "µM"}, {"measurement": "TGI", "setting": "NCI/ADR-RES ovarian", "result": "> 100", "unit": "µM"}, {"measurement": "TGI", "setting": "M14 melanoma", "result": "> 100", "unit": "µM"}, {"measurement": "GI50", "setting": "DU-145 prostate", "result": 1.6, "unit": "µM"}, {"measurement": "TGI", "setting": "DU-145 prostate", "result": "> 100", "unit": "µM"}, {"measurement": "TGI", "setting": "MDA-MB-231 breast", "result": 44.2, "unit": "µM"}, {"measurement": "GI50", "setting": "TK-10 renal", "result": 0.196, "unit": "µM"}, {"measurement": "TGI", "setting": "TK-10 renal", "result": 47.8, "unit": "µM"}, {"measurement": "TGI", "setting": "SN12C renal", "result": "> 51.6", "unit": "µM"}, {"measurement": "GI50", "setting": "NCI-H522 lung", "result": 0.901, "unit": "µM"}, {"measurement": "TGI", "setting": "NCI-H522 lung", "result": 27.1, "unit": "µM"}, {"measurement": "GI50", "setting": "EKVX NSCLC", "result": 0.301, "unit": "µM"}, {"measurement": "TGI", "setting": "EKVX NSCLC", "result": "> 93.7", "unit": "µM"}, {"measurement": "TGI", "setting": "A549 NSCLC", "result": "> 100", "unit": "µM"}, {"measurement": "TGI", "setting": "HS 578T breast", "result": 86.3, "unit": "µM"}]}]}
